Assay results taken from publication PMC11883000, “Structure-function relationship of ASH1L and histone H3K36 and H3K4 methylation” (Nature Communications, 2025).

Columns and labels:
mouse ES cells [1] = test: RNA-seq analysis of differentiated mouse ES cells; type: cell-based; conditions: RNA-seq data of ref 19
Procedure: RNA-seq data reported by Yin et al.[19] was analyzed to compare RNA from undifferentiated mouse ES cells to RNA from mouse ES cells differentiated under various conditions, as described in Fig. 1. Reads were filtered using Trimmomatic v0.40 and mapped to the mouse reference genome (mm9) by TopHat (version 2.0.10). Fragments were enumerated to the UCSC reference transcriptome using the hseq-count function from the HTSeq package (version 0.6.0). Genes with <5 fragments were filtered out and gene expression changes (FC > 1.5, FDR < 0.01) were analyzed using DESeq2 (v1.42.1), with undifferentiated cells as controls. Heatmaps were generated using either the ggplot2 or pheatmap packages with z-score normalization.
Supplementary Figure 1. Analysis of RNA-seq data reported by Yin et al. (ref. 19),
comparing RNA from undifferentiated mouse ES cells to RNA from mouse ES cells
differentiated under multiple conditions (see Figure 1). Gene expression changes (FC >
1.5, FDR < 0.01 ) in 4-day RA differentiated cells were identified using DESeq2, with
undifferentiated cells as controls.
after RA treatment. Related to Figure 1.
(1 picture or pasted object on this page, not shown here)

Ash1l = test: Western blot of Ash1l protein expression level; type: cell-based, mouse; conditions: retinoic acid for 6 days
[2] = system: Meis2 enhancer and promoter sites; test: ChIP-qPCR of Ash1l occupancy at Meis2 promoter and enhancers; type: cell-based, mouse; conditions: for Ash1l occupancy, Meis2 Enh 1 / Ash1l occupancy, Meis2 Enh 2 / Ash1l occupancy, Meis2 Enh 3 / Ash1l occupancy, Meis2 promoter: Ash1l ChIP, + RA
Procedure: J1 ESCs were cultured feeder free on 0.1% gelatin-coated plates in ESC culture medium (Dulbecco’s modified Eagle’s medium (Hi-glucose), supplemented with 15% fetal bovine serum (Corning), non-essential amino acids, L-glutamine, β-mercaptoethanol, 1% penicillin/streptomycin, sodium pyruvate and 1000 U/mL leukemia inhibitory factor (LIF) (Ebioscience, 34-8521-82). For embryoid body formation, mouse ES cells were dissociated from gelatin-coated plates and seeded on non-adherent cell culture dishes (Greiner) at a density of 1 × 10^5 cells/mL in 10 mL of differentiation medium (ESC culture medium without LIF). Media was exchanged every 48 h and cells were collected at indicated time course. For neuronal differentiation, cells were plated on gelatin-coated plates at a density of 1×10^4 cells/cm^2 in ESC culture medium. The following day, medium was exchanged to differentiation medium +1 μM retinoic acid (RA) (Sigma) to induce differentiation. Medium was exchanged every 48 h for indicated time course. Total RNA was extracted with RNeasy Mini Kit (QIAGEN) and reverse transcribed using Superscript III Reverse Transcriptase (Life Technologies). qPCR analysis was performed using Brilliant III Ultra Fast SYBR Green QPCR Master Mix (Agilent Technologies). Gene expression data were normalized against Hprt/Gapdh and represented as fold change relative to the control. The relative expression values are shown as mean ± S.D. For ChIP-qPCR, chromatin occupancy was calculated as the ratio of the amount of immunoprecipitated DNA to that of the input sample (% input).

mouse ES cells [3] = test: qPCR of gene expression in mouse ES cells, RA-induced differentiation; type: cell-based; conditions: for HoxA9 relative expression / Neurog2 relative expression / Olig1 relative expression / Runx1 relative expression: + RA 2 days, qPCR
Procedure: J1 ESCs were cultured feeder free on 0.1% gelatin-coated plates in ESC culture medium (Dulbecco’s modified Eagle’s medium (Hi-glucose), supplemented with 15% fetal bovine serum (Corning), non-essential amino acids, L-glutamine, β-mercaptoethanol, 1% penicillin/streptomycin, sodium pyruvate and 1000 U/mL leukemia inhibitory factor (LIF) (Ebioscience, 34-8521-82). For embryoid body formation, mouse ES cells were dissociated from gelatin-coated plates and seeded on non-adherent cell culture dishes (Greiner) at a density of 1 × 10^5 cells/mL in 10 mL of differentiation medium (ESC culture medium without LIF). Media was exchanged every 48 h and cells were collected at indicated time course. For neuronal differentiation, cells were plated on gelatin-coated plates at a density of 1×10^4 cells/cm^2 in ESC culture medium. The following day, medium was exchanged to differentiation medium +1 μM retinoic acid (RA) (Sigma) to induce differentiation. Medium was exchanged every 48 h for indicated time course.
Total RNA was extracted with RNeasy Mini Kit (QIAGEN) and reverse transcribed using Superscript III Reverse Transcriptase (Life Technologies). qPCR analysis was performed using Brilliant III Ultra Fast SYBR Green QPCR Master Mix (Agilent Technologies). Gene expression data were normalized against Hprt/Gapdh and represented as fold change relative to the control. The relative expression values are shown as mean ± S.D. For ChIP-qPCR, chromatin occupancy was calculated as the ratio of the amount of immunoprecipitated DNA to that of the input sample (% input).
CRISPR/Cas9 mediated editing was performed essentially as described. The designed gRNA ([…]) was cloned into the pSpCas9(BB)-2A-GFP (PX458) plasmid (a gift from Feng Zhang) and miniprepped using standard DNA miniprep procedures (Qiagen). J1 mES cells were transfected with sgRNAs or empty vector with Lipofectamine 2000 (ThermoFisher). Transfected cells were isolated by FACS at the Mount Sinai Flow Cytometry Core facility, and a single cell was plated per well in 96-well plates. Cells were cultured for 2-3 weeks until single colonies were visible. Cells were harvested and DNA was extracted using the QuickExtract solution (Epibio). PCR was performed using the following primers: Ash1l, F:TAGAAAGTCTGCACGGGCG, R:[…], Nestin, F:[…], R:[…], HoxA9, F:[…], R: […], Pax6, F:[…], R:[…], Gata4, F: […], R: […], Sox7, F:[…], R:[…], Pou5f1, F:[…], R:CAGGGCTTTCATGTCCTGG, Brachyury, F:GAGAGCGCAGGGAAGAGC, R:[…], Nkx2-5, F:[…], R:[…].

SMILES: CC1=C(/C=C/C(C)=C/C=C/C(C)=C/C(=O)O)C(C)(C)CCC1 [RA, retinoic acid]
- Ash1l expression upregulation (mouse ES cells [1]; 4 days RA differentiation, FDR < 0.01, vs undifferentiated): 1.96 fold
- expression of Nsd1, all Mll family genes and several Plc genes (Ezh1, Ring1, Cbx7/8) (mouse ES cells [1]; RA differentiation): noticeably up-regulated
- expression of Setd2, BRD2/3/4 and Ezh2 (mouse ES cells [1]; RA differentiation): down-regulated
- Ash1l protein expression level (Ash1l): highest
- Ash1l occupancy, Meis2 Enh 1 ([2]; replicate 1): 0.01897 % input
- Ash1l occupancy, Meis2 Enh 2 ([2]; replicate 1): 0.04268 % input
- Ash1l occupancy, Meis2 Enh 3 ([2]; replicate 1): 0.02225 % input
- Ash1l occupancy, Meis2 promoter ([2]; replicate 1): 0.06078 % input
- Ash1l occupancy, Meis2 Enh 1 ([2]; replicate 2): 0.02319 % input
- Ash1l occupancy, Meis2 Enh 2 ([2]; replicate 2): 0.04358 % input
- Ash1l occupancy, Meis2 Enh 3 ([2]; replicate 2): 0.02683 % input
- Ash1l occupancy, Meis2 promoter ([2]; replicate 2): 0.06121 % input
- Ash1l occupancy, Meis2 Enh 1 ([2]; replicate 3): 0.01327 % input
- Ash1l occupancy, Meis2 Enh 2 ([2]; replicate 3): 0.04413 % input
- Ash1l occupancy, Meis2 Enh 3 ([2]; replicate 3): 0.02442 % input
- Ash1l occupancy, Meis2 promoter ([2]; replicate 3): 0.05366 % input
- Ash1l recruitment to promoter and enhancer sites of Meis2 ([2]; RA-induced ESC differentiation, ChIP-qPCR): recruited to promoter and enhancer sites
- HoxA9 relative expression (mouse ES cells [3]; WT mES cells, replicate 1): 83.8652
- Neurog2 relative expression (mouse ES cells [3]; WT mES cells, replicate 1): 4.681
- Olig1 relative expression (mouse ES cells [3]; WT mES cells, replicate 1): 5.04
- Runx1 relative expression (mouse ES cells [3]; WT mES cells, replicate 1): 31.4139
- HoxA9 relative expression (mouse ES cells [3]; WT mES cells, replicate 2): 95.0095
- Neurog2 relative expression (mouse ES cells [3]; WT mES cells, replicate 2): 6.712
- Olig1 relative expression (mouse ES cells [3]; WT mES cells, replicate 2): 5.327
- Runx1 relative expression (mouse ES cells [3]; WT mES cells, replicate 2): 47.9458
- HoxA9 relative expression (mouse ES cells [3]; WT mES cells, replicate 3): 128.89
- Neurog2 relative expression (mouse ES cells [3]; WT mES cells, replicate 3): 11.2096
- Olig1 relative expression (mouse ES cells [3]; WT mES cells, replicate 3): 5.4768
- Runx1 relative expression (mouse ES cells [3]; WT mES cells, replicate 3): 42.0296
- transcriptional expression of Ash1l (mouse ES cells [3]; qPCR time course, RA-induced differentiation): dramatic and time-dependent increase
- expression of HoxA9, Runx1, Neurog2, and Olig1 in CRISPR/Cas9 edited B7 clone (mouse ES cells [3]; retinoic acid, two days): altered expression
- HoxA9 relative expression (mouse ES cells [3]; ΔAsh1l B7 clone, replicate 1): 9.646
- Neurog2 relative expression (mouse ES cells [3]; ΔAsh1l B7 clone, replicate 1): 28.3773
- Olig1 relative expression (mouse ES cells [3]; ΔAsh1l B7 clone, replicate 1): 3.982
- Runx1 relative expression (mouse ES cells [3]; ΔAsh1l B7 clone, replicate 1): 2.976
- HoxA9 relative expression (mouse ES cells [3]; ΔAsh1l B7 clone, replicate 2): 8.282
- Neurog2 relative expression (mouse ES cells [3]; ΔAsh1l B7 clone, replicate 2): 24.5333
- Olig1 relative expression (mouse ES cells [3]; ΔAsh1l B7 clone, replicate 2): 4.037
- Runx1 relative expression (mouse ES cells [3]; ΔAsh1l B7 clone, replicate 2): 2.4005
- HoxA9 relative expression (mouse ES cells [3]; ΔAsh1l B7 clone, replicate 3): 11.0043
- Neurog2 relative expression (mouse ES cells [3]; ΔAsh1l B7 clone, replicate 3): 29.378
- Olig1 relative expression (mouse ES cells [3]; ΔAsh1l B7 clone, replicate 3): 4.238
- Runx1 relative expression (mouse ES cells [3]; ΔAsh1l B7 clone, replicate 3): 2.591
